Test results published in patent EP0232423A1, “CIRCULATION IMPROVING AGENT” (GRELAN PHARMACEUTICAL CO., LTD., priority 1985, dated 1987).
Structures can show the parent of a compound that is named as a salt.

Assays:
isolated basilar artery [1] = experiment: Ca antagonistic action: Ca-induced contraction in K-depolarized basilar artery; assay type: cell-based, Mongrel dogs; conditions: Canis lupus familiaris, 0.25 h, 50 mM KCl, Ca-free bath, cumulative CaCl2, compound applied 15 minutes before, read-out: pA2 values on Ca-induced contraction in depolarized muscle by K (converted)
Description: The same measurements as in Test Example 2 were carried out using the isolated basilar artery and isolated femoral artery treated in accordance with the method of Test Example 2.
For examination of the Ca antagonistic action, the depolarization of both isolated arteries was induced with 50 mM KC1 in a bathing solution from which Ca had been removed and then CaCl2 was cumulatively applied thereto. As test compounds, (a) compound (I) (erythro form) lactate and (b) ifenprodil tartrate were applied at 15 minutes before addition of CaCl2.

isolated femoral artery [2] = experiment: K-induced 45Ca uptake in isolated femoral artery; assay type: cell-based, Mongrel dogs; conditions: 50 mM KCl alone 586.0 ± 17.9
Source text: (§1) Using the isolated basilar artery and femoral artery treated in accordance with Test Example 2, the activity of (a) compound (I) (lactate), (b) ifenprodil tartrate and (c) verapamil hydrochloride against ^45Ca influx and ^45Ca uptake were examined by the conventional method (J. Membran. Biol., vol. 59, page 19, 1981).

ddY male mice [3] = experiment: Ameliorative activity against damage of cerebral hypoxia (reduced pressure); assay type: in vivo
Description: Thirty mg/kg each of compound (I) (lactate) and ifenprodil tartrate and 16 mg/kg of phentolamine, which is an a-adrenoceptor blocker, were intraperitoneally administered to ddY male mice, respectively. […] Time from start of reduction of pressure until stop of respiration in the mice was measured. The control group was drug-untreated.

isolated basilar artery [4] = experiment: PGF2α-induced 45Ca uptake in isolated basilar artery; assay type: cell-based, Mongrel dogs; conditions: 10^-5 M + 10^-5 M PGF2α; PGF2α alone 166.2 ± 6.0
Source text: as §1

isolated basilar artery [5] = experiment: Relaxation of isolated basilar artery contracted by 50 mM KCl; assay type: cell-based, Mongrel dogs; conditions: Canis lupus familiaris, 50 mM KCl contraction
Description: (§2) Mongrel dogs of either sex (body weight 10-17 kg) were killed by bleeding under anesthetization with pentobarbital sodium (tradename: Nembutai ® Abbott Co., USA). Thereafter, the basilar and femoral arteries were extracted and attached blood and connective tissues were carefully removed in a dish filled with Krebs bicarbonate solution (composition: NaCl 117.7 mM, KC1 4.7 mM, CaCl2 2.5 mM, MgSo4 1.2 mM, glucose 10 mM, NaHCO3 24.4 mM). Thereafter, ring preparations were made therefrom. This preparation was suspended in a bathing tube of 10 ml filled with Krebs bicarbonate solution aerated with 95 % 02 and 5 % C02.
(§3) Then, samples of basilar and femoral arteries were contracted by application of 50 mM KC1. After confirming that the contraction was sustained, (a) compound (I) (erythro form) lactate, (b) compound (I) (threo form) lactate and (c) ifenprodil; [2-(4-benzyl- piperidino-l-(4-hydroxyphenyl)propane-l-ol] tartrate were, respectively, administered as test compounds and the dose-relaxation response was examined.
(§4) A strain gauge transducer (model SB-lT manufactured by Nihon Koden Co.) was employed for recording of change of tension and isometric contraction was recorded on a recorder (model QPD 53 made by Hitachi Ltd . ) .

platelets of rabbit = experiment: Fluidity of platelet membrane (fluorescence polarization); assay type: cell-based; set-up: Fluorescence polarization: unit not given here; conditions: for Fluorescence polarization: fluidity increases as value decreases
Source text: The activity of compound (I) (lactate) and ifenprodil tartrate against the fluidity of platelet membrane was examined according to a known method (Biochimica et Biophysica Acta, vol. 798, page 210, 1984) using platelets of rabbit and using n-butyl alcohol as a positive control.

isolated coronary artery = experiment: Relaxation of isolated coronary artery; assay type: cell-based, Mongrel dogs; conditions: Canis lupus familiaris, read-out: ED50 (the source's name)
Description: as §2, §3, §4
Experiments were conducted in accordance with the method of Test Example 2 with use of the coronary artery in place of the basilar and femoral arteries. […]

ddY male mice [6] = experiment: Prolongation of gasping time in complete cerebral ischemic (decapitated) animals; assay type: in vivo; conditions: for Ratio of time (%): prolongation as compared with the control group; for Duration time of gasping: decapitated after 30 minutes
Description: After 30 minutes from administration, the.mice were decapitated and the duration time of gasping was measured. The control group was drug-untreated.

ddY male mice [7] = experiment: Thromboembolic respiratory depression induced by ADP; assay type: in vivo; conditions: 30 mg/kg oral, ADP 40 mg/kg i.v., Compound (I) = erythro form
Description: The degree of formation of platelet thrombi in the pulmonary vessels of mice induced by intravenous administration of ADP can be measured based on the decrease in the respiratory rate. The anti-platelet thrombotic action of test drugs can be evaluated by using this decrease in the respiratory rate as a standard. […] Relative respiratory rate (%) was calculated according to the following formula. [formula] (cf. "Thrombosis Research", Vol. 35, Page 311, 1984)

α1-adrenoceptor = experiment: Antagonism of phenylephrine (α1-agonist) contraction in saphenous vein; assay type: cell-based, Mongrel dogs; conditions: α1 - agonist: phenylephrine; saphenous vein; 15 minutes treatment
Source text: In this experiment, phenylephrine and clonidine were used as al-agonist and a2-agonist, respectively, and these agonists were cumulatively applied to obtain a dose-response curve.

isolated femoral artery [8] = experiment: K-induced 45Ca influx in isolated femoral artery; assay type: cell-based, Mongrel dogs; conditions: 10^-5 M + 50 mM KCl
Source text: as §1

CC(C(O)c1ccc(O)cc1)N1CCC(Cc2ccccc2)CC1 (stereo not shown) [Ifenprodil tartrate]
Kb (isolated basilar artery [1]): 5.37 µM | K-induced ^45Ca uptake in isolated femoral artery (isolated femoral artery [2]; 5 x 10^-5 M + 50 mM KCl): 471.2 ± 40.0 n mol/g wt. tissue | K-induced ^45Ca uptake in isolated femoral artery (isolated femoral artery [2]; 10^-4 M + 50 mM KCl): 486.5 ± 20.9 n mol/g wt. tissue | K-induced ^45Ca uptake in isolated femoral artery (isolated femoral artery [2]; 10^-5 M + 50 mM KCl): 635.2 ± 41.4 n mol/g wt. tissue | Time required for stoppage of respiration (ddY male mice [3]; 30 mg/kg intraperitoneally, 30 minutes before, pressure reduced to 160 mmHg): 85.2 ± 4.1 s | effect on survival time (cerebral hypoxia) (ddY male mice [3]; i.p., 30 mg/kg compound (I) and ifenprodil tartrate, 16 mg/kg phentolamine): substantially no effect | PGF2α-induced ^45Ca uptake in isolated basilar artery (isolated basilar artery [4]): 125.7 ± 5.6 n mol/g wt. tissue | inhibition at 50 µM (isolated basilar artery [5]; 5 x 10^-5 M, mean, n = 4 - 5): 96.6% | inhibition at 100 µM (isolated basilar artery [5]; 10^-4 M, mean, n = 4 - 5): 100% | inhibition at 10 µM (isolated basilar artery [5]; 10^-5 M, mean, n = 4 - 5): 44.1% | inhibition at 1 µM (isolated basilar artery [5]; 10^-6 M, mean, n = 4 - 5): 5.1% | inhibition at 0.1 µM (isolated basilar artery [5]; 10^-7 M, mean, n = 4 - 5): 0.9% | EC50 (isolated basilar artery [5]; relaxation of isolated basilar artery, read-out: ED50 (the source's name)): 11 µM | effect on fluidity of platelet membrane (platelets of rabbit): no such activity | Fluorescence polarization (platelets of rabbit; 1 µM): 7 | Fluorescence polarization (platelets of rabbit; 10 µM): 13±7 | Fluorescence polarization (platelets of rabbit; 100 µM): 3±3 | EC50 (isolated coronary artery): 26 µM | Ratio of time (%) (ddY male mice [6]; 10 mg/kg i.p.): 10.0% | Duration time of gasping (ddY male mice [6]; 10 mg/kg intraperitoneally): 23.0 ± 0.5 s | Ratio of time (%) (ddY male mice [6]; 30 mg/kg i.p.): 28.7% | Duration time of gasping (ddY male mice [6]; 30 mg/kg intraperitoneally): 26.9 ± 1.2 s | Relative respiratory rate (%) (ddY male mice [7]; 1/3 hr after administration): 34.6 ±10.2 (n=8) % | Relative respiratory rate (%) (ddY male mice [7]; 1 hr after administration): 61.3 ±9.3 (n=6) % | Relative respiratory rate (%) (ddY male mice [7]; 2 hr after administration): 52.7 ±6.1 (n=10) % | Relative respiratory rate (%) (ddY male mice [7]; 3 hr after administration): 41.0 ±4.4 (n=8) % | Relative respiratory rate (%) (ddY male mice [7]; 5 hr after administration): 23.0 ±9.9 (n=7) % | pA2 value (α1-adrenoceptor): 8.22 ± 0.29 | K-induced ^45Ca influx in isolated femoral artery (isolated femoral artery [8]; pre-incubation 15 min, 50 mM KCl alone 94.6 ± 5.2): 99.8 ± 6.4 n mol/g wt. tissue | K-induced ^45Ca influx in isolated femoral artery (isolated femoral artery [8]; pre-incubation 45 min, 50 mM KCl alone 98.4 ± 6.8): 59.0 ± 9.8 n mol/g wt. tissue | K-induced ^45Ca influx in isolated femoral artery (isolated femoral artery [8]; pre-incubation 135 min): 64.8 ± 7.5 n mol/g wt. tissue
